Experimental data taken from the NIST ThermoML archive (doi:10.1016/j.jct.2010.06.009).

Assay: activity coefficient (dimensionless); of the first substance listed, at infinite dilution; xn = mol fraction of the nth substance listed
Conditions: 101 kPa, Liquid, Chromatography, x1 = 0

CCc1ccccc1 [ethylbenzene] + CCCC[n+]1ccccc1.O=S(=O)([N-]S(=O)(=O)C(F)(F)F)C(F)(F)F
Conditions	activity coefficient
302.8 K	2.74
312.6 K	2.75
323.3 K	2.77
333.2 K	2.77
343.2 K	2.78
353.3 K	2.78

CCc1ccccc1 [ethylbenzene] + CC[n+]1ccccc1.O=S(=O)([N-]S(=O)(=O)C(F)(F)F)C(F)(F)F
Conditions	activity coefficient
303.4 K	3.34
313.1 K	3.36
323.2 K	3.37
333.1 K	3.39
343 K	3.4
353.1 K	3.41

CCCCCCC [heptane] + CCCCC[n+]1ccccc1.O=S(=O)([N-]S(=O)(=O)C(F)(F)F)C(F)(F)F
Conditions	activity coefficient
303.2 K	16.5
312.7 K	14.6
323.4 K	12.6
333.3 K	11
343.3 K	9.35
353.3 K	7.98

CCCCCCC [heptane] + CCCC[n+]1ccccc1.O=S(=O)([N-]S(=O)(=O)C(F)(F)F)C(F)(F)F
Conditions	activity coefficient
302.8 K	21.8
312.4 K	19.4
323.2 K	16.8
333.2 K	13.8
343.3 K	11.4
353.4 K	9.35

CCCCCCC [heptane] + CC[n+]1ccccc1.O=S(=O)([N-]S(=O)(=O)C(F)(F)F)C(F)(F)F
Conditions	activity coefficient
302.8 K	29.3
313.3 K	23.1
323.1 K	18.6
333 K	14.7
342.9 K	11.8
353 K	9.37

C=CCCCC [hex-1-ene] + CCCCC[n+]1ccccc1.O=S(=O)([N-]S(=O)(=O)C(F)(F)F)C(F)(F)F
Conditions	activity coefficient
302.9 K	6.22
312.8 K	5.46
322.6 K	4.84
333.4 K	4.17
343.4 K	3.55
353.4 K	3.08

C=CCCCC [hex-1-ene] + CCCC[n+]1ccccc1.O=S(=O)([N-]S(=O)(=O)C(F)(F)F)C(F)(F)F
Conditions	activity coefficient
302.3 K	8.87
312.9 K	7.45
323 K	6.38
332.8 K	5.29
343 K	4.33
352.8 K	3.71

C=CCCCC [hex-1-ene] + CC[n+]1ccccc1.O=S(=O)([N-]S(=O)(=O)C(F)(F)F)C(F)(F)F
Conditions	activity coefficient
302.6 K	11.5
313.1 K	9.42
322.9 K	7.86
332.8 K	6.54
342.9 K	5.34
353 K	4.4

CCCCCC [hexane] + CCCCC[n+]1ccccc1.O=S(=O)([N-]S(=O)(=O)C(F)(F)F)C(F)(F)F
Conditions	activity coefficient
303.3 K	9.78
312.7 K	8.36
323.4 K	7
333.3 K	5.98
343.3 K	5.01
353.3 K	4.25

CCCCCC [hexane] + CCCC[n+]1ccccc1.O=S(=O)([N-]S(=O)(=O)C(F)(F)F)C(F)(F)F
Conditions	activity coefficient
302.8 K	11.9
312.4 K	10.4
323.2 K	8.58
332.8 K	7.59
343.3 K	5.85
353.4 K	4.75

CCCCCC [hexane] + CC[n+]1ccccc1.O=S(=O)([N-]S(=O)(=O)C(F)(F)F)C(F)(F)F
Conditions	activity coefficient
302.8 K	13.8
313.3 K	10.8
323.1 K	8.59
333 K	6.86
342.9 K	5.46
353 K	4.38

CO [methanol] + CCCCC[n+]1ccccc1.O=S(=O)([N-]S(=O)(=O)C(F)(F)F)C(F)(F)F
Conditions	activity coefficient
302.8 K	1.62
313.5 K	1.46
323.4 K	1.31
333.3 K	1.18
343.2 K	1.06
353.4 K	0.94

CO [methanol] + CCCC[n+]1ccccc1.O=S(=O)([N-]S(=O)(=O)C(F)(F)F)C(F)(F)F
Conditions	activity coefficient
302.7 K	2
313.4 K	1.73
323.1 K	1.56
333.1 K	1.39
343.1 K	1.25
353.3 K	1.12

CO [methanol] + CC[n+]1ccccc1.O=S(=O)([N-]S(=O)(=O)C(F)(F)F)C(F)(F)F
Conditions	activity coefficient
302.5 K	1.86
313.1 K	1.69
323 K	1.53
332.9 K	1.38
342.9 K	1.26
353 K	1.13

CC1CCCCC1 [methylcyclohexane] + CCCCC[n+]1ccccc1.O=S(=O)([N-]S(=O)(=O)C(F)(F)F)C(F)(F)F
Conditions	activity coefficient
303.1 K	10.2
312.7 K	9.39
323.4 K	8.48
333.3 K	7.64
343.3 K	6.84
353.3 K	6.08

CC1CCCCC1 [methylcyclohexane] + CCCC[n+]1ccccc1.O=S(=O)([N-]S(=O)(=O)C(F)(F)F)C(F)(F)F
Conditions	activity coefficient
302.8 K	14.1
312.4 K	12.7
323.2 K	11.6
333.1 K	10.1
343.3 K	8.44
353.4 K	7.2

CC1CCCCC1 [methylcyclohexane] + CC[n+]1ccccc1.O=S(=O)([N-]S(=O)(=O)C(F)(F)F)C(F)(F)F
Conditions	activity coefficient
302.8 K	17.8
313.3 K	15
323.1 K	12.8
333 K	10.8
342.9 K	9.01
353 K	7.49

CCCCCCCCC [nonane] + CCCCC[n+]1ccccc1.O=S(=O)([N-]S(=O)(=O)C(F)(F)F)C(F)(F)F
Conditions	activity coefficient
303.2 K	36
312.7 K	33.3
323.4 K	30.2
333.3 K	27.3
343.3 K	24.2
353.3 K	21.4

CCCCCCCCC [nonane] + CCCC[n+]1ccccc1.O=S(=O)([N-]S(=O)(=O)C(F)(F)F)C(F)(F)F
Conditions	activity coefficient
303.1 K	52.3
312.6 K	50
323.3 K	45.6
333.3 K	38.6
343.3 K	33.3
353.4 K	28.1

CCCCCCCCC [nonane] + CC[n+]1ccccc1.O=S(=O)([N-]S(=O)(=O)C(F)(F)F)C(F)(F)F
Conditions	activity coefficient
302.8 K	86.1
313.3 K	74.3
323.1 K	63.4
333 K	51.7
342.9 K	42.2
353 K	33.8

C=CCCCCCC [oct-1-ene] + CCCCC[n+]1ccccc1.O=S(=O)([N-]S(=O)(=O)C(F)(F)F)C(F)(F)F
Conditions	activity coefficient
303 K	14.2
312.6 K	13.2
322.6 K	12.2
333.4 K	11
343.4 K	9.95
353.4 K	9.08

C=CCCCCCC [oct-1-ene] + CCCC[n+]1ccccc1.O=S(=O)([N-]S(=O)(=O)C(F)(F)F)C(F)(F)F
Conditions	activity coefficient
302.5 K	22.3
313 K	19.7
323.2 K	18.4
332.8 K	15.7
343 K	13.6
352.9 K	11.9

C=CCCCCCC [oct-1-ene] + CC[n+]1ccccc1.O=S(=O)([N-]S(=O)(=O)C(F)(F)F)C(F)(F)F
Conditions	activity coefficient
302.6 K	36.6
313.2 K	31.5
323.2 K	27.2
332.8 K	23.7
342.9 K	19.8
353 K	16.7

CCCCCCCC [octane] + CCCCC[n+]1ccccc1.O=S(=O)([N-]S(=O)(=O)C(F)(F)F)C(F)(F)F
Conditions	activity coefficient
303.2 K	25
312.7 K	22.8
323.4 K	20.3
333.3 K	18
343.3 K	15.7
353.3 K	13.7

CCCCCCCC [octane] + CCCC[n+]1ccccc1.O=S(=O)([N-]S(=O)(=O)C(F)(F)F)C(F)(F)F
Conditions	activity coefficient
302.7 K	35.4
312.5 K	32.2
323.2 K	29
333.3 K	23.9
343.3 K	20.4
353.4 K	16.8

CCCCCCCC [octane] + CC[n+]1ccccc1.O=S(=O)([N-]S(=O)(=O)C(F)(F)F)C(F)(F)F
Conditions	activity coefficient
302.8 K	52.9
313.3 K	43.5
323.1 K	36
333 K	29.1
342.9 K	23.4
353 K	18.5

CCCCC [pentane] + CCCCC[n+]1ccccc1.O=S(=O)([N-]S(=O)(=O)C(F)(F)F)C(F)(F)F
Conditions	activity coefficient
303.3 K	5.03
312.7 K	4.17
323.4 K	3.42
333.3 K	2.89
343.3 K	2.41
353.3 K	2.07

CCCCC [pentane] + CCCC[n+]1ccccc1.O=S(=O)([N-]S(=O)(=O)C(F)(F)F)C(F)(F)F
Conditions	activity coefficient
302.8 K	5.66
312.4 K	4.83
323.2 K	3.92
333 K	3.44
343.4 K	2.66
353.4 K	2.24

CCCCC [pentane] + CC[n+]1ccccc1.O=S(=O)([N-]S(=O)(=O)C(F)(F)F)C(F)(F)F
Conditions	activity coefficient
302.7 K	5.79
313.3 K	4.5
323 K	3.59
333 K	2.92
342.9 K	2.36
352.9 K	1.95

CCCO [propan-1-ol] + CCCCC[n+]1ccccc1.O=S(=O)([N-]S(=O)(=O)C(F)(F)F)C(F)(F)F
Conditions	activity coefficient
302.8 K	2.53
313.6 K	2.23
323.4 K	2.02
333.3 K	1.84
343.3 K	1.65
353.3 K	1.49

CCCO [propan-1-ol] + CCCC[n+]1ccccc1.O=S(=O)([N-]S(=O)(=O)C(F)(F)F)C(F)(F)F
Conditions	activity coefficient
303.4 K	3.31
313.3 K	2.82
323.2 K	2.52
333.1 K	2.25
343.1 K	2.03
353 K	1.84

CCCO [propan-1-ol] + CC[n+]1ccccc1.O=S(=O)([N-]S(=O)(=O)C(F)(F)F)C(F)(F)F
Conditions	activity coefficient
302.5 K	3.56
313.1 K	3.18
323 K	2.85
332.9 K	2.57
342.9 K	2.29
353 K	2.06

Cc1ccccc1 [toluene] + CCCCC[n+]1ccccc1.O=S(=O)([N-]S(=O)(=O)C(F)(F)F)C(F)(F)F
Conditions	activity coefficient
303.1 K	1.28
312.8 K	1.3
323.3 K	1.33
333.3 K	1.34
343.3 K	1.36
353.5 K	1.36

Cc1ccccc1 [toluene] + CCCC[n+]1ccccc1.O=S(=O)([N-]S(=O)(=O)C(F)(F)F)C(F)(F)F
Conditions	activity coefficient
302.8 K	1.8
312.6 K	1.82
323.3 K	1.83
333.2 K	1.83
343.2 K	1.85
353.3 K	1.86

Cc1ccccc1 [toluene] + CC[n+]1ccccc1.O=S(=O)([N-]S(=O)(=O)C(F)(F)F)C(F)(F)F
Conditions	activity coefficient
303.6 K	2.08
313.1 K	2.09
323.2 K	2.1
333.2 K	2.11
343 K	2.12
353.3 K	2.13
